# Legend:
# [1] = tested on: Epidermal growth factor receptor (Homo sapiens), P00533 [UNDEFINED MUTATION]; conditions: Compound concentration 1000.0 nM
# [2] = target: 3-phosphoinositide-dependent protein kinase 1 (Homo sapiens) (UniProt O15530); conditions: Compound concentration 1000.0 nM
# [3] = target: Serine/threonine-protein kinase 35 (Homo sapiens) (UniProt Q8TDR2); conditions: Compound concentration 1000.0 nM
# [4] = target: Serine/threonine-protein kinase PLK2 (Homo sapiens) (UniProt Q9NYY3); conditions: Compound concentration 1000.0 nM
# [5] = target: Cyclin-dependent kinase 4 (Homo sapiens) (UniProt P11802); conditions: Compound concentration 1000.0 nM
# [6] = tested on: Epidermal growth factor receptor (Homo sapiens), P00533 [UNDEFINED MUTATION]; conditions: Compound concentration 1000.0 nM; remark: listed apart in the source
# [7] = target: Fibroblast growth factor receptor 1 (Homo sapiens) (UniProt P11362); conditions: Compound concentration 1000.0 nM
# [8] = target: Serine/threonine-protein kinase SIK1 (Homo sapiens) (UniProt P57059); conditions: Compound concentration 1000.0 nM
# [9] = target: Tyrosine-protein kinase BTK (Homo sapiens) (UniProt Q06187); conditions: Compound concentration 1000.0 nM
# [10] = tested on: Tyrosine-protein kinase ABL1 (Homo sapiens), P00519 [Q252H]; conditions: Compound concentration 1000.0 nM
# [11] = target: Serine/threonine-protein kinase D1 (Homo sapiens) (UniProt Q15139); conditions: Compound concentration 1000.0 nM
# [12] = target: Eukaryotic translation initiation factor 2-alpha kinase 1 (Homo sapiens) (UniProt Q9BQI3); conditions: Compound concentration 1000.0 nM
# [13] = target: Proto-oncogene tyrosine-protein kinase receptor Ret (Homo sapiens) (UniProt P07949); conditions: Compound concentration 1000.0 nM
# [14] = target: 5-hydroxytryptamine receptor 1E (Homo sapiens) (UniProt P28566); conditions: Compound concentration 10.0 uM
# [15] = target: Serine/threonine-protein kinase 4 (Homo sapiens) (UniProt Q13043); conditions: Compound concentration 1000.0 nM
# [16] = target: Bone morphogenetic protein receptor type-2 (Homo sapiens) (UniProt Q13873); conditions: Compound concentration 1000.0 nM
# [17] = target: Interleukin-1 receptor-associated kinase 3 (Homo sapiens) (UniProt Q9Y616); conditions: Compound concentration 1000.0 nM
# [18] = target: Platelet-derived growth factor receptor beta (Homo sapiens) (UniProt P09619); conditions: Compound concentration 1000.0 nM
# [19] = target: Cyclin-dependent kinase 16 (Homo sapiens) (UniProt Q00536); conditions: Compound concentration 1000.0 nM
# [20] = target: Serine/threonine-protein kinase MARK2 (Homo sapiens) (UniProt Q7KZI7); conditions: Compound concentration 1000.0 nM
# [21] = target: Calcium/calmodulin-dependent protein kinase type IV (Homo sapiens) (UniProt Q16566); conditions: Compound concentration 1000.0 nM
# [22] = target: Serine/threonine-protein kinase PAK 2 (Homo sapiens) (UniProt Q13177); conditions: Compound concentration 1000.0 nM
# [23] = target: Serine/threonine-protein kinase DCLK2 (Homo sapiens) (UniProt Q8N568); conditions: Compound concentration 1000.0 nM
# [24] = target: Serine/threonine-protein kinase Nek10 (Homo sapiens) (UniProt Q6ZWH5); conditions: Compound concentration 1000.0 nM
# [25] = tested on: Phosphatidylinositol 4,5-bisphosphate 3-kinase catalytic subunit alpha isoform (Homo sapiens), P42336 [E545A]; conditions: Compound concentration 1000.0 nM
# [26] = target: LIM domain kinase 1 (Homo sapiens) (UniProt P53667); conditions: Compound concentration 1000.0 nM
# [27] = target: Tyrosine-protein kinase ABL2 (Homo sapiens) (UniProt P42684); conditions: Compound concentration 1000.0 nM
# [28] = target: Death-associated protein kinase 3 (Homo sapiens) (UniProt O43293); conditions: Compound concentration 1000.0 nM
# [29] = target: T1, Alpha-1D adrenergic receptor (Homo sapiens) (UniProt P25100); conditions: Compound concentration 10.0 uM
# T1 sequence (whole entry): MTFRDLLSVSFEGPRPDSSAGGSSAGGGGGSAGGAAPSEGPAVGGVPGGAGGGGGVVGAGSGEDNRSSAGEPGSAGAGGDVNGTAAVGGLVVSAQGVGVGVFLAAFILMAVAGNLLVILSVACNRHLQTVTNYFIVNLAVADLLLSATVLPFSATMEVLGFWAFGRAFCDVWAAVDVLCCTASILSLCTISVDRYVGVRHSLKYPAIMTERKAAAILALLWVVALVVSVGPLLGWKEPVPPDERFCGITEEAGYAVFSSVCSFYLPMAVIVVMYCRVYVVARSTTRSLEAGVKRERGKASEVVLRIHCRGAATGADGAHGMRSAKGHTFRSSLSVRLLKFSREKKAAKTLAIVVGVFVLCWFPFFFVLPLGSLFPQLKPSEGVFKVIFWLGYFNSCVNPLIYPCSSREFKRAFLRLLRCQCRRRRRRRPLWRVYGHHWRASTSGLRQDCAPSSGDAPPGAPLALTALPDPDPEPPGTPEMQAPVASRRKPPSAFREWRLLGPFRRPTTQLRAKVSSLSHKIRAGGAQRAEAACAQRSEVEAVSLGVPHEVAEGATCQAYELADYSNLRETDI
# [30] = target: Non-receptor tyrosine-protein kinase TYK2 (Homo sapiens) (UniProt P29597); conditions: Compound concentration 1000.0 nM
# [31] = target: Aurora kinase A (Homo sapiens) (UniProt O14965); conditions: Compound concentration 1000.0 nM
# [32] = target: 5'-AMP-activated protein kinase catalytic subunit alpha-2 (Homo sapiens) (UniProt P54646); conditions: Compound concentration 1000.0 nM
# [33] = target: ALK tyrosine kinase receptor (Homo sapiens) (UniProt Q9UM73); conditions: Compound concentration 1000.0 nM
# [34] = target: Serine/threonine-protein kinase/endoribonuclease IRE1 (Homo sapiens) (UniProt O75460); conditions: Compound concentration 1000.0 nM
# [35] = target: Serine/threonine-protein kinase Sgk2 (Homo sapiens) (UniProt Q9HBY8); conditions: Compound concentration 1000.0 nM
# [36] = tested on: Tyrosine-protein kinase ABL1 (Homo sapiens), P00519 [F317I]; conditions: Compound concentration 1000.0 nM
# [37] = target: Tyrosine-protein kinase JAK1 (Homo sapiens) (UniProt P23458); conditions: Compound concentration 1000.0 nM
# Sequence of Epidermal growth factor receptor (Homo sapiens), P00533 [UNDEFINED MUTATION] (P00533 whole entry, looked up, change not shown): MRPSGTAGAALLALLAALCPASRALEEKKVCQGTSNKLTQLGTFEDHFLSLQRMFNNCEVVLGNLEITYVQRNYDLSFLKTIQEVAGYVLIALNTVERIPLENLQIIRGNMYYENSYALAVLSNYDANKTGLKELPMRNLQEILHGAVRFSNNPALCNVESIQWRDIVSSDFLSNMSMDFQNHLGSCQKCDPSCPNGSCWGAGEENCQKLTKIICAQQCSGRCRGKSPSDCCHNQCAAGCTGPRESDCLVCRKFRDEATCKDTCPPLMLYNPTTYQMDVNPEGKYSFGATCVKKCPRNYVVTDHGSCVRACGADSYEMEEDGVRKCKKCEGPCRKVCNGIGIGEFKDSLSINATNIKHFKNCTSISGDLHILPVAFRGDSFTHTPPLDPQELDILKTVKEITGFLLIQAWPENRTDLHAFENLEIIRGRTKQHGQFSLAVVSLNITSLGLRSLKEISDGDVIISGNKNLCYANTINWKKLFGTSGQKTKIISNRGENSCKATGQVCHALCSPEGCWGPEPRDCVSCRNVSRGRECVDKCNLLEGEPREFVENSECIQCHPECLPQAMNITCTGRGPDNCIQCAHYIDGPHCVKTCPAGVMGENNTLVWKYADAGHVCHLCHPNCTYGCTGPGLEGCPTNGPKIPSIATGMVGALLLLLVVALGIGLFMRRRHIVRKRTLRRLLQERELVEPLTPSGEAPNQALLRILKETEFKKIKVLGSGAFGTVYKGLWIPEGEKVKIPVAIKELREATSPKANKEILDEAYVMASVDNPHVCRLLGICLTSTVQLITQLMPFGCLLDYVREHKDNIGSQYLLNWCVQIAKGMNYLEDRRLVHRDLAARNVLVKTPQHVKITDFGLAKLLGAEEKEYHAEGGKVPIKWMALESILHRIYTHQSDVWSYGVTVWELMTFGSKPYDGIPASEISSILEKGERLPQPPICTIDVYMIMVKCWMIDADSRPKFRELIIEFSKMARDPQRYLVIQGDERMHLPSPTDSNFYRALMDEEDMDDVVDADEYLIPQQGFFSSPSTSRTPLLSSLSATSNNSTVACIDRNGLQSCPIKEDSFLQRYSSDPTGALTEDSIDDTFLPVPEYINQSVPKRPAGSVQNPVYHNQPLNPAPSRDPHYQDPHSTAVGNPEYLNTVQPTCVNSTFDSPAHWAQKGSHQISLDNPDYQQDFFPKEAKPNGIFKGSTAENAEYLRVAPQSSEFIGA
# Sequence of LIM domain kinase 1 (Homo sapiens) (P53667 whole entry, looked up, the tested form may be a part): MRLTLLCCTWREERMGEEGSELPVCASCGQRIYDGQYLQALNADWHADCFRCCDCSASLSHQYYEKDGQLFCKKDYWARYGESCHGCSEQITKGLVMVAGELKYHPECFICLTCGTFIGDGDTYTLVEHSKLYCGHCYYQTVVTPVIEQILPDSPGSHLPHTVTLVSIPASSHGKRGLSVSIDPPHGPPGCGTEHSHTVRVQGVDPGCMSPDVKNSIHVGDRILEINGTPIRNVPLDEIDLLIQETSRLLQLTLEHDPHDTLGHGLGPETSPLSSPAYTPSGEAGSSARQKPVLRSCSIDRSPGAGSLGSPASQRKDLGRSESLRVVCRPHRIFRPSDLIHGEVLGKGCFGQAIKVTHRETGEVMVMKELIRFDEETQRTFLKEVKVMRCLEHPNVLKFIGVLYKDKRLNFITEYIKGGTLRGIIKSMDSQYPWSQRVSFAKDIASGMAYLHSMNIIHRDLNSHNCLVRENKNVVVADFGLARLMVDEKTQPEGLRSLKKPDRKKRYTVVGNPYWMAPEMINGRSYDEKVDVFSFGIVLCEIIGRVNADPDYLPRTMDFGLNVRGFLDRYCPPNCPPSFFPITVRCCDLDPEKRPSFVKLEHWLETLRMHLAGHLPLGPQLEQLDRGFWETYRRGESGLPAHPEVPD
# Sequence of Tyrosine-protein kinase ABL2 (Homo sapiens) (P42684 whole entry): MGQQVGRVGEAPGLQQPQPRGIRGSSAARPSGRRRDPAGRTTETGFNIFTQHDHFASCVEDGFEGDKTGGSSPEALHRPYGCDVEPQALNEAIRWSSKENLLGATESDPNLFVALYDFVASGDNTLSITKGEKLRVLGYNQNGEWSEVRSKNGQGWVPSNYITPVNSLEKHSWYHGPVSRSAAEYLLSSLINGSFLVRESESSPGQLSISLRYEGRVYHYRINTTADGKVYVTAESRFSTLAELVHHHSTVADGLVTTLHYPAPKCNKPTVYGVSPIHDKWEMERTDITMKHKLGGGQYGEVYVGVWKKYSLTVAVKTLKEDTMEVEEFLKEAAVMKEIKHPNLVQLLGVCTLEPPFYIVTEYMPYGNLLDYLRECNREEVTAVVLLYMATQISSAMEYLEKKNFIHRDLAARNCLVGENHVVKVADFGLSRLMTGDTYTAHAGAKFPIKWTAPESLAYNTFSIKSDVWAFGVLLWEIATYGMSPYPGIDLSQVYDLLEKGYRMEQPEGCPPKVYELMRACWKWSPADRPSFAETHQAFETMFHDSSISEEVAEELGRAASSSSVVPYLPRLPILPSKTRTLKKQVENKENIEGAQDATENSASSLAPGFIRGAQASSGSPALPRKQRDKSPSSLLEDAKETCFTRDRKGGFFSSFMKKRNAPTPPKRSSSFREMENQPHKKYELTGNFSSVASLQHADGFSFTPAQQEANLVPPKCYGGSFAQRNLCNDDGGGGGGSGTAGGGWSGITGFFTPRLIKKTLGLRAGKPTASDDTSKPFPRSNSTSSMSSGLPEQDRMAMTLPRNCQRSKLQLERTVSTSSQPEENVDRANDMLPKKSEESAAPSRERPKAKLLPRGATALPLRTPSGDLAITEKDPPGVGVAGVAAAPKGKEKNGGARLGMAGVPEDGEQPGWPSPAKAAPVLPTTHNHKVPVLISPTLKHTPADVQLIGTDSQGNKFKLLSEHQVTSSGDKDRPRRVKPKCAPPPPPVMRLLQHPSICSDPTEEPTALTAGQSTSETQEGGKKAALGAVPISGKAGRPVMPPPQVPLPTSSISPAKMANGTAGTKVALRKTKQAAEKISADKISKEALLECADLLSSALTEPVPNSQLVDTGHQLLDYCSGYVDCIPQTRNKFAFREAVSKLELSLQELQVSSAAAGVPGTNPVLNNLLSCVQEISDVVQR
# Sequence of Serine/threonine-protein kinase DCLK2 (Homo sapiens) (Q8N568 whole entry): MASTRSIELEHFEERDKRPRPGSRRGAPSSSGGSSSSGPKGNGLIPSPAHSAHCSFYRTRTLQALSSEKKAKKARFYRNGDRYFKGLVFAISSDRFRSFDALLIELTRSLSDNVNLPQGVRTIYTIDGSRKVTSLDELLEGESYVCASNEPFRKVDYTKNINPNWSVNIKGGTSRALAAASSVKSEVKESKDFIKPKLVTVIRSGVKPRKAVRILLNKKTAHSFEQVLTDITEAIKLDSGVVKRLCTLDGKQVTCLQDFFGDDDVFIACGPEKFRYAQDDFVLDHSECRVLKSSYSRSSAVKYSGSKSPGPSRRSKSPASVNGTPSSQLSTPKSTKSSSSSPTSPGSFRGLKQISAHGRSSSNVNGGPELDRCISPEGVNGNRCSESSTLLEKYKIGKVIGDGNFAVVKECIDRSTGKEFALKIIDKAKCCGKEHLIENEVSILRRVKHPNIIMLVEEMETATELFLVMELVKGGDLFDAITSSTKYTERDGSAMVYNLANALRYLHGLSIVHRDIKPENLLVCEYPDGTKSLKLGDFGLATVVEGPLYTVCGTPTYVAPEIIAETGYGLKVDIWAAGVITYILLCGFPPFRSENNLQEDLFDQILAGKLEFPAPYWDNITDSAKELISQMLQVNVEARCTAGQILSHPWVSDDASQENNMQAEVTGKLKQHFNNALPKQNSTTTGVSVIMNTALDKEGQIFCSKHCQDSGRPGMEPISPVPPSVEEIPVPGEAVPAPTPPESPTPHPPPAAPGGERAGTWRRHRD
# Sequence of Calcium/calmodulin-dependent protein kinase type IV (Homo sapiens) (Q16566 whole entry): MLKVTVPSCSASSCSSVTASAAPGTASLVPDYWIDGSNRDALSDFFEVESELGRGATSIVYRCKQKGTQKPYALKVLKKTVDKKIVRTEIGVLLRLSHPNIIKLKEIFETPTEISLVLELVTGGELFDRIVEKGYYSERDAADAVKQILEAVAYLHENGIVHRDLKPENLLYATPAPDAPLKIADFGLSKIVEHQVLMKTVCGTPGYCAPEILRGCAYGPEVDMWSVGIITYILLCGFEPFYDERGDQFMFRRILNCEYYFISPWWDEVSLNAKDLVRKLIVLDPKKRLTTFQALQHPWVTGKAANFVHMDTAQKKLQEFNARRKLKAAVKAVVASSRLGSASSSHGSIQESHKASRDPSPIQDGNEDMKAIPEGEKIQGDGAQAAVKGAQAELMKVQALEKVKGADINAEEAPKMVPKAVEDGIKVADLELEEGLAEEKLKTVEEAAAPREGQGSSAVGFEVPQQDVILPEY
# Sequence of Cyclin-dependent kinase 4 (Homo sapiens) (P11802 whole entry): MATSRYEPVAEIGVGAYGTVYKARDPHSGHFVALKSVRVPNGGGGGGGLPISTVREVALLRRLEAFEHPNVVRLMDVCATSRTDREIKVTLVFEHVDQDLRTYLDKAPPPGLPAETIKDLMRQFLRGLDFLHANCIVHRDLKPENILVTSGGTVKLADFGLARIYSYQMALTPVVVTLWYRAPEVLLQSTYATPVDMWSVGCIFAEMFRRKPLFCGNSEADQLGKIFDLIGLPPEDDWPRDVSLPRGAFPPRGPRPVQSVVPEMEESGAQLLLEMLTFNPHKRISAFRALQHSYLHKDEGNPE
# Sequence of Serine/threonine-protein kinase 4 (Homo sapiens) (Q13043 whole entry): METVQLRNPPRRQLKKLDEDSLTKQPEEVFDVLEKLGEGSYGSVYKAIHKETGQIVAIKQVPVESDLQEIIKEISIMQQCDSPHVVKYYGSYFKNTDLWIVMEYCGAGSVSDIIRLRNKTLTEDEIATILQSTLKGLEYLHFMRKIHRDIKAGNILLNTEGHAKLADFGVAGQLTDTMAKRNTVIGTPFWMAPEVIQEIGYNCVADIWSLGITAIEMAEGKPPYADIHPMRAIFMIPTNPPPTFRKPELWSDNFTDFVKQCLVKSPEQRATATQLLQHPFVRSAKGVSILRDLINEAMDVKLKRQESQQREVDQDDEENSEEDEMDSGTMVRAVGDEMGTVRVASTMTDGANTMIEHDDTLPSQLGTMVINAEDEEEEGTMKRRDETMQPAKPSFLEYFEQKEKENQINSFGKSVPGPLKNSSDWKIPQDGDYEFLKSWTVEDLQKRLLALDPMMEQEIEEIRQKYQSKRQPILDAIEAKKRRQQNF
Structure (SMILES),residual activity [1] [%],residual activity [2] [%],residual activity [3] [%],residual activity [4] [%],residual activity [5] [%],residual activity [6] [%],residual activity [7] [%],residual activity [8] [%],residual activity [9] [%],residual activity [10] [%],residual activity [11] [%],residual activity [12] [%],residual activity [13] [%],inhibition [14] [%],residual activity [15] [%],residual activity [16] [%],residual activity [17] [%],residual activity [18] [%],residual activity [19] [%],residual activity [20] [%],also measured
O=C(NCc1ncc(C(F)(F)F)cc1Cl)c1ccc2c(c1)C1(CCS(=O)(=O)CC1)[C@@H](C1CC1)N2S(=O)(=O)c1ccc(F)cc1 [BAY-786],79,92,93,74,82,69,100,89,73,100,76,94,100,-1.55,86,73,100,77,80,63,residual activity [21]: 71%; residual activity [22]: 84%; residual activity [23]: 100%; residual activity [24]: 83%; residual activity [25]: 90%; residual activity [26]: 91%; residual activity [27]: 100%; residual activity [28]: 89%; inhibition [29]: -3.69%; residual activity [30]: 73%; residual activity [31]: 81%; residual activity [32]: 100%; residual activity [33]: 73%; residual activity [34]: 65%; residual activity [35]: 77%; residual activity [36]: 80%; residual activity [37]: 85%
O=C(NCc1ncc(C(F)(F)F)cc1Cl)c1ccc2c(c1)C1(CCS(=O)(=O)CC1)[C@H](C1CC1)N2S(=O)(=O)c1ccc(F)cc1 [BAY-784],100,91,100,76,86,97,49,100,64,100,93,86,98,10.4,87,80,99,92,100,100,residual activity [21]: 86%; residual activity [22]: 100%; residual activity [23]: 100%; residual activity [24]: 94%; residual activity [25]: 89%; residual activity [26]: 100%; residual activity [27]: 100%; residual activity [28]: 90%; inhibition [29]: 4.13%; residual activity [30]: 79%; residual activity [31]: 97%; residual activity [32]: 100%; residual activity [33]: 98%; residual activity [34]: 78%; residual activity [35]: 83%; residual activity [36]: 83%; residual activity [37]: 86%

# — ChEMBL document CHEMBL4507266, “Data for DCP probe BAY-784” (2021)
